# Source: patent US9376418B2, “Substituted pyridine spleen tyrosine kinase (SYK) inhibitors” (Merck Sharp & Dohme Corp., priority 2012, dated 2016)
# Biological target: T1, recombinant human GST-SYK (Homo sapiens, UniProt P43405)
# T1 construct: purchased Carna Biosciences 08-176
# Experiment: Homogeneous Time-Resolved Fluorescence (HTRF) assay for the recombinant human Syk enzyme
# Assay type: biochemical
# Conditions: HTRF assay, recombinant human GST-SYK; IC50 given as class symbols; read-out: rhSYK Activity
# Outline: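 GST-hSYK ([…]) was preincubated with inhibitor (0.1% DMSO) for 10 min at room temperature in Tris-HCl pH 7.5 with tween 20 and DTT. Biotinylated peptide (250 nM), Mg (5 mM) and ATP (25 μM) were added for 45 min. The reaction was quenched with EDTA, and phosphotyrosine was read by Eu-antibody/SA-APC HTRF after 30 min.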
row,Compound,IC50 [nM]
1,"COC1CN(C(=O)c2ccc(-c3cc(C)cc(Nc4nccc(C(F)(F)F)n4)c3)cn2)C1 [Example 16.34, N-(3-{6-[(3-methoxyazetidin-1-yl)carbonyl]pyridin-3-yl}-5-methylphenyl)-4-(trifluoromethyl)pyrimidin-2-amine]",100 to 1000
2,"Cc1cc(Nc2nccc(C(F)(F)F)n2)cc(-c2ccc(C(=O)NCC(O)CCCl)nc2)c1 (stereo not shown) [Example 16.35, N-(4-chloro-2-hydroxybutyl)-5-(3-methyl-5-{[4-(trifluoromethyl)pyrimidin-2-yl]amino}phenyl)pyridine-2-carboxamide]",100 to 1000
3,"Cc1cc(Nc2nccc(C(F)(F)F)n2)cc(-c2ccc(C(=O)N(C)C(C3CC3)C3CC3)nc2)c1 [Example 16.36, N-(dicyclopropylmethyl)-N-methyl-5-(3-methyl-5-{[4-(trifluoromethyl)pyrimidin-2-yl]amino}phenyl)pyridine-2-carboxamide]",100 to 1000
4,"Cc1cc(Nc2nccc(C(F)(F)F)n2)cc(-c2ccc(C(=O)N3CCOC(CCO)C3)nc2)c1 (stereo not shown) [Example 16.37, 2-(4-{[5-(3-methyl-5-{[4-(trifluoromethyl)pyrimidin-2-yl]amino}phenyl)pyridin-2-yl]carbonyl}morpholin-2-yl)ethanol]",< 100
5,"Cc1cc(Nc2nccc(C(F)(F)F)n2)cc(-c2ccc(C(=O)N(C)CC3COCCO3)nc2)c1 (stereo not shown) [Example 16.38, N-(1,4-dioxan-2-ylmethyl)-N-methyl-5-(3-methyl-5-{[4-(trifluoromethyl)pyrimidin-2-yl]amino}phenyl)pyridine-2-carboxamide]",100 to 1000
6,"COCC1CN(C(=O)c2ccc(-c3cc(C)cc(Nc4nccc(C(F)(F)F)n4)c3)cn2)CCO1 (stereo not shown) [Example 16.39, N-[3-(6-{[2-(methoxymethyl)morpholin-4-yl]carbonyl}pyridin-3-yl)-5-methylphenyl]-4-(trifluoromethyl)pyrimidin-2-amine]",< 100
7,"Cc1cc(Nc2nccc(C(F)(F)F)n2)cc(-c2ccc(C(=O)N3C[C@H]4C[C@@H]3CO4)nc2)c1 [Example 16.40, N-(3-methyl-5-{6-[(1R,4R)-2-oxa-5-azabicyclo[2.2.1]hept-5-ylcarbonyl]pyridin-3-yl}phenyl)-4-(trifluoromethyl)pyrimidin-2-amine]",< 100
8,"Cc1cc(Nc2nccc(C(F)(F)F)n2)cc(-c2ccc(C(=O)N3C[C@H](O)C[C@H]3C)nc2)c1 [Example 16.41, (3R,5R)-5-methyl-1-{[5-(3-methyl-5-{[4-(trifluoromethyl)pyrimidin-2-yl]amino}phenyl)pyridin-2-yl]carbonyl}pyrrolidin-3-ol]",< 100
9,"Cc1cc(Nc2nccc(C(F)(F)F)n2)cc(-c2ccc(C(=O)N3CCC(C)(O)C3)nc2)c1 (stereo not shown) [Example 16.42, 3-methyl-1-{[5-(3-methyl-5-{[4-(trifluoromethyl)pyrimidin-2-yl]amino}phenyl)pyridin-2-yl]carbonyl}pyrrolidin-3-ol]",< 100
10,"Cc1cc(Nc2nccc(C(F)(F)F)n2)cc(-c2ccc(C(=O)N3CC[C@H](CO)C3)nc2)c1 [Example 16.43, [(3S)-1-{[5-(3-methyl-5-{[4-(trifluoromethyl)pyrimidin-2-yl]amino}phenyl)pyridin-2-yl]carbonyl}pyrrolidin-3-yl]methanol]",< 100
11,"Cc1cc(Nc2nccc(C(F)(F)F)n2)cc(-c2ccc(C(=O)N3CCCC34CCNC4=O)nc2)c1 (stereo not shown) [Example 16.44, 1-{[5-(3-methyl-5-{[4-(trifluoromethyl)pyrimidin-2-yl]amino}phenyl)pyridin-2-yl]carbonyl}-1,7-diazaspiro[4.4]nonan-6-one]",< 100
12,"COCC(O)CNC(=O)c1ccc(-c2cc(C)cc(Nc3nccc(C(F)(F)F)n3)c2)cn1 (stereo not shown) [Example 16.45, N-(2-hydroxy-3-methoxypropyl)-5-(3-methyl-5-{[4-(trifluoromethyl)pyrimidin-2-yl]amino}phenyl)pyridine-2-carboxamide]",< 100
13,"Cc1cc(Nc2nccc(C(F)(F)F)n2)cc(-c2ccc(C(=O)NC(C3CC3)C3CC3)nc2)c1 [Example 16.46, N-(dicyclopropylmethyl)-5-(3-methyl-5-{[4-(trifluoromethyl)pyrimidin-2-yl]amino}phenyl)pyridine-2-carboxamide]",100 to 1000
14,"Cc1cc(Nc2nccc(C(F)(F)F)n2)cc(-c2ccc(C(=O)N3CCCC(C)(O)C3)nc2)c1 (stereo not shown) [Example 16.47, 3-methyl-1-{[5-(3-methyl-5-{[4-(trifluoromethyl)pyrimidin-2-yl]amino}phenyl)pyridin-2-yl]carbonyl}piperidin-3-ol]",< 100
15,"Cc1cc(Nc2nccc(C(F)(F)F)n2)cc(-c2ccc(C(=O)N3CCC(C)(O)CC3)nc2)c1 [Example 16.48, 4-methyl-1-{[5-(3-methyl-5-{[4-(trifluoromethyl)pyrimidin-2-yl]amino}phenyl)pyridin-2-yl]carbonyl}piperidin-4-ol]",< 100
16,"Cc1cc(Nc2nccc(C(F)(F)F)n2)cc(-c2ccc(C(=O)N3CC[S+]([O-])CC3)nc2)c1 [Example 16.49, N-(3-methyl-5-{6-[(1-oxidothiomorpholin-4-yl)carbonyl]pyridin-3-yl}phenyl)-4-(trifluoromethyl)pyrimidin-2-amine]",< 100
17,"Cc1cc(Nc2nccc(C(F)(F)F)n2)cc(-c2ccc(C(=O)NCCS(N)(=O)=O)nc2)c1 [Example 16.50, 5-(3-methyl-5-{[4-(trifluoromethyl)pyrimidin-2-yl]amino}phenyl)-N-(2-sulfamoylethyl)pyridine-2-carboxamide]",< 100
18,"Cc1cc(Nc2nccc(C(F)(F)F)n2)cc(-c2ccc(C(=O)N(C)Cc3n[nH]c(=O)[nH]3)nc2)c1 [Example 16.51, N-methyl-5-(3-methyl-5-{[4-(trifluoromethyl)pyrimidin-2-yl]amino}phenyl)-N-[(5-oxo-4,5-dihydro-1H-1,2,4-triazol-3-yl)methyl]pyridine-2-carboxamide]",< 100

# Results, then the compound that gave them:
row,IC50 [nM],Compound
1,< 100,"Cc1cc(Nc2nccc(C(F)(F)F)n2)cc(-c2ccc(C(=O)N3CCC[S+]([O-])CC3)nc2)c1 (stereo not shown) [Example 16.52, N-(3-methyl-5-{6-[(1-oxido-1,4-thiazepan-4-yl)carbonyl]pyridin-3-yl}phenyl)-4-(trifluoromethyl)pyrimidin-2-amine]"
2,100 to 1000,"Cc1cc(Nc2nccc(C(F)(F)F)n2)cc(-c2ccc(C(=O)NCc3ncc[nH]3)nc2)c1 [Example 16.53, N-(1H-imidazol-2-ylmethyl)-5-(3-methyl-5-{[4-(trifluoromethyl)pyrimidin-2-yl]amino}phenyl)pyridine-2-carboxamide]"
3,< 100,"Cc1cc(Nc2nccc(C(F)(F)F)n2)cc(-c2ccc(C(=O)NC3CCS(=O)(=O)C3)nc2)c1 (stereo not shown) [Example 16.54, N-(1,1-dioxidotetrahydrothiophen-3-yl)-5-(3-methyl-5-{[4-(trifluoromethyl)pyrimidin-2-yl]amino}phenyl)pyridine-2-carboxamide]"
4,< 100,"Cc1cc(Nc2nccc(C(F)(F)F)n2)cc(-c2ccc(C(=O)N3CCS(=O)(=O)CC3)nc2)c1 [Example 16.55, N-(3-{6-[(1,1-dioxidothiomorpholin-4-yl)carbonyl]pyridin-3-yl}-5-methylphenyl)-4-(trifluoromethyl)pyrimidin-2-amine]"
5,< 100,"Cc1cc(Nc2nccc(C(F)(F)F)n2)cc(-c2ccc(C(=O)N(C)CC(O)CO)nc2)c1 (stereo not shown) [Example 16.56, N-(2,3-dihydroxypropyl)-N-methyl-5-(3-methyl-5-{[4-(trifluoromethyl)pyrimidin-2-yl]amino}phenyl)pyridine-2-carboxamide]"
6,< 100,"CNS(=O)(=O)CCNC(=O)c1ccc(-c2cc(C)cc(Nc3nccc(C(F)(F)F)n3)c2)cn1 [Example 16.57, N-[2-(methylsulfamoyl)ethyl]-5-(3-methyl-5-{[4-(trifluoromethyl)pyrimidin-2-yl]amino}phenyl)pyridine-2-carboxamide]"
7,< 100,"Cc1cc(Nc2nccc(C(F)(F)F)n2)cc(-c2ccc(C(=O)N(C)CCS(C)(=O)=O)nc2)c1 [Example 16.58, N-methyl-N-[2-(methylsulfonyl)ethyl]-5-(3-methyl-5-{[4-(trifluoromethyl)pyrimidin-2-yl]amino}phenyl)pyridine-2-carboxamide]"
8,< 100,"CCN(C)C(=O)c1ccc(-c2cc(C)cc(Nc3nccc(C(F)(F)F)n3)c2)cn1 [Example 16.59, N-ethyl-N-methyl-5-(3-methyl-5-{[4-(trifluoromethyl)pyrimidin-2-yl]amino}phenyl)pyridine-2-carboxamide]"
9,< 100,"Cc1cc(Nc2nccc(C(F)(F)F)n2)cc(-c2ccc(C(=O)N(CCO)CCO)nc2)c1 [Example 16.60, N,N-bis(2-hydroxyethyl)-5-(3-methyl-5-{[4-(trifluoromethyl)pyrimidin-2-yl]amino}phenyl)pyridine-2-carboxamide]"
10,< 100,"CNC(=O)CN(C)C(=O)c1ccc(-c2cc(C)cc(Nc3nccc(C(F)(F)F)n3)c2)cn1 [Example 16.61, N-methyl-N-[2-(methylamino)-2-oxoethyl]-5-(3-methyl-5-{[4-(trifluoromethyl)pyrimidin-2-yl]amino}phenyl)pyridine-2-carboxamide]"
11,< 100,"Cc1cc(Nc2nccc(C(F)(F)F)n2)cc(-c2ccc(C(=O)N(C)CC(N)=O)nc2)c1 [Example 16.62, N-(2-amino-2-oxoethyl)-N-methyl-5-(3-methyl-5-{[4-(trifluoromethyl)pyrimidin-2-yl]amino}phenyl)pyridine-2-carboxamide]"
12,100 to 1000,"CNC(=O)CNC(=O)c1ccc(-c2cc(C)cc(Nc3nccc(C(F)(F)F)n3)c2)cn1 [Example 16.63, N-[2-(methylamino)-2-oxoethyl]-5-(3-methyl-5-{[4-(trifluoromethyl)pyrimidin-2-yl]amino}phenyl)pyridine-2-carboxamide]"
13,100 to 1000,"Cc1cc(Nc2nccc(C(F)(F)F)n2)cc(-c2ccc(C(=O)NCCS(C)(=O)=O)nc2)c1 [Example 16.64, N-[2-(methylsulfonyl)ethyl]-5-(3-methyl-5-{[4-(trifluoromethyl)pyrimidin-2-yl]amino}phenyl)pyridine-2-carboxamide]"
